According to patent US20250000863A1, “COMBINATION THERAPIES OF KRAS G12D INHIBITORS WITH SOS1 INHIBITORS” (MIRATI THERAPEUTICS, INC., priority 2021, published 2025):

Test system: AsPC-1 cells
Assay: AsPC-1 TGI-70 xenograft tumor volume study
Assay type: in vivo, nude/nude mice
Details: for Average Tumor Volumes: MRTX0902 50 mg/kg BID daily, alone or combined, 5 mice per group
Description: Experimental Procedures. 20 nude/nude mice were inoculated with AsPC-1 cells in the right hind flank. When the tumors reached ˜200 mm^3 four treatment groups were established with five mice per group.

Compound	tumor growth inhibition (Day 13, MRTX0902 50 mg/kg BID daily as a single agent) [%]	Average Tumor Volumes (Study Day 1, MRTX1133 30 mg/kg BID daily) [mm^3]	Average Tumor Volumes (Study Day 6, MRTX1133 30 mg/kg BID daily) [mm^3]	Average Tumor Volumes (Study Day 9, MRTX1133 30 mg/kg BID daily) [mm^3]	Average Tumor Volumes (Study Day 13, MRTX1133 30 mg/kg BID daily) [mm^3]	Average Tumor Volumes (Study Day 16, MRTX1133 30 mg/kg BID daily) [mm^3]	Average Tumor Volumes (Study Day 20, MRTX1133 30 mg/kg BID daily) [mm^3]	Average Tumor Volumes (Study Day 23, MRTX1133 30 mg/kg BID daily) [mm^3]	tumor regression (Day 13, MRTX1133 30 mg/kg BID daily, alone or with MRTX0902 twice daily) [%]
Cc1c(C#N)cccc1[C@@H](C)Nc1nnc(C)c2cnc(N3CCOCC3)cc12 [MRTX0902]	26	194.8	215.066	220.892	262.374	316.164	387.59	480.782	
C#Cc1c(F)ccc2cc(O)cc(-c3ncc4c(N5C[C@H]6CC[C@@H](C5)N6)nc(OC[C@@]56CCCN5C[C@H](F)C6)nc4c3F)c12 [MRTX1133, 4-(4-((1R,5S)-3,8-diazabicyclo[3.2.1]octan-3-yl)-8-fluoro-2-(((2R,7aS)-2-fluorohexahydro-1H-pyrrolizin-7a-yl)methoxy)pyrido[4,3-d]pyrimidin-7-yl)-5-ethynyl-6-fluoronaphthalen-2-ol]									26
